Measured values taken from EP4778522A1, “USE OF PYRROLOPYRIMIDINE COMPOUND AND COMPOSITION THEREOF” (Guangzhou Joyo Pharmatech Co., Ltd., priority 2023, dated 2025).
Several values for one entry are separate records, joined by “and”; a condition that tells them apart may be missing. Equal values may be shown once. Marks after values point to notes of the source that are not given here.

How the values were obtained:
[1] = test system: monobenzone-induced mouse vitiligo model; assay: Monobenzone-induced mouse vitiligo model: hair depigmentation area scoring; type: in vivo, C57BL/6 mice; set-up: Hair depigmentation area scoring: scale not given here
Method: • 1) Animals: C57BL/6 mice, specific pathogen-free (SPF), with equal numbers of females and males. The mice were 6-8 weeks old at grouping, with 10 mice per group. The animals were provided by Charles River Laboratories. • 2) Reagents, positive drugs and test drugs
Monobenzone induction method: after 1 week of adaptive feeding of all the animals, modeling was performed and all black hairs on the back of the mice were removed by a shaver. 10 animals were randomly selected as a normal control group and applied with 50 mg of vaseline once a day; and the remaining 80 animals were used for modeling and applied with 50 mg of 40% monobenzone depigmentation ointment once a day. The applying area of the normal control group and the model group was 2 cm*3 cm of the fixed part of the back, and the modeling was continuously performed for 103 days. In order to prevent the phenomenon that the animals lick the drugs, after the animals were applied with a modeling agent, they needed to be separately placed in an independent cage without padding for a period of time to naturally dry the modeling agent, and then they were placed in a rearing cage for normal rearing. During the modeling process, new hairs grown in the alopecic areas of the backs of the mice were shaved by the shaver and then applied with the drug.
The 40% monobenzone depigmentation ointment was applied every day. After modeling for 53 days, according to a depigmentation area score (see scoring criteria of Table 9), 70 animals successfully modeled in modeling group (score ≥ 2) were randomly divided into 7 groups with 10 mice per group. The mean depigmentation area score of the animals in each group was basically consistent before the administration, and the day of grouping was defined as day 0 of the administration treatment period. Table 8 Grouping and administration regimen
During the whole experiment process, the mice in normal control group (G1) were applied with 50 mg of vaseline once a day; and the mice in each model group (G2-G8) were applied with 50 mg of 40% monobenzone ointment once a day. After modeling for 53 days, the mice were grouped and subjected to drug treatment after grouping consecutively for 50 days. The modeling operation was maintained during the drug intervention period. The mice were applied with the drug twice a day for treatment at an interval of 6 hours or more. […]

[2] = test system: monobenzone-induced mouse vitiligo model; assay: Monobenzone-induced mouse vitiligo model: skin pathological analysis of melanin-containing hair follicles; type: in vivo, C57BL/6 mice; conditions: 1.5% ruxolitinib ointment
Method: The mice were euthanized within 2-4 hours after the last administration, and approximately 1 cm^2 of the skin in the center of the depilated part of the mice was taken and fixed with 4% paraformaldehyde. The animal skin tissues were fixed with 4% paraformaldehyde, dehydrated, embedded with paraffin, sectioned and then subjected to HE staining. The stained sections were photographed by white light panoramic scanning, histopathological changes of the skin tissues and inflammatory cell infiltration were observed, and the number of melanin-containing hair follicles and/or the proportion of the melanin-containing hair follicles in the skin were quantitatively analyzed. The panoramic scanning files were opened by using CaseViewer software, a picture view with the length of about 3.8 mm was randomly selected, and the pictures were saved. The number of all the hair follicles and the number of the melanin-containing hair follicles in the picture were counted respectively by using ipwin32 software. The proportion of the melanin-containing hair follicles was calculated according to the following formula: Proportion of melanin-containing hair follicles = number of melanin-containing follicles/number of all follicles

[3] = test system: imiquimod-induced C3H/HeJ mice alopecia areata model; assay: Imiquimod-induced mouse alopecia areata model: hair growth; type: in vivo; conditions: Baricitinib 10 mg/kg oral by gavage twice a day for one month, Day 30; for Newly grown hair score: score 0-5
Method: • 1) Animals: female C3H/He mice, SPF, aged 6-8 weeks at grouping. The animals were provided by Beijing Viewsolid Biotech. • 2) Reagents, positive drugs and test drugs
After one week of adaptive feeding of C3H/HeJ mice: modeling was performed by applying imiquimod ointment to the neck, 3 times a week. The mice were carefully taken out, and about 0.05 g of 5% imiquimod ointment was dipped with a clean medical cotton swab and then applied evenly to the skin on the neck over a range of about 1.5 cm×1.5 cm. Before each application, the local part was cleaned by normal saline to remove the residual drug in the previous time. The continuous administration time was no longer than 10 weeks. When alopecia areata with an area size > 1 cm×1 cm was formed at the administration part, the administration was stopped, proving that a preparation model was successful. The mice in the normal control group were modeled by using blank ointment (vaseline ointment).
During the period from the first administration to the end of the last administration after the alopecia areata modeling was successful, the alopecia areata part of each mouse was photographed once every 3 days, the photographing distance, angle and magnification times were fixed, and the hair growth of the alopecic areas on the backs of the mice was recorded.
Visual quantification of the alopecia area images was performed using ImageJ software. The hair growth area (a) and hair loss area (b) were calculated. The hair growth rate was counted and analyzed: hair growth rate (%) = (a/b)* 100%. The newly grown hairs at the alopecia areata part of the mice in each group were scored based on the hair growth rate. Table 14 Scoring criteria of newly grown hairs

[4] = test system: imiquimod-induced C3H/HeJ mice alopecia areata model; assay: Imiquimod-induced mouse alopecia areata model: number of hair follicles in skin; type: in vivo; conditions: Baricitinib 10 mg/kg oral by gavage twice a day for one month, skin at alopecia areata part
Method: After the animals were anesthetized and euthanized, the complete skin tissue of the alopecic area was cut along the junction between the normal skin of the back of the mouse and the alopecic area and perpendicular to the skin surface. A part of the tissue was taken, conventionally dehydrated and embedded. The remaining tissue was stored in a refrigerator at -80°C for later use.
The embedded skin tissue was cut into 3 µm-thick sections, and then the sections were dewaxed in xylene, hydrated by gradient ethanol, H&E stained, dehydrated, cleared and mounted. The hair follicles in skin tissue sections from each group were microscopically observed and photographed. The mean number of the hair follicles was calculated using Image J software.

[5] = 30 mg topical twice a day for 50 days

N#CC[C@H](C1CCCC1)n1cc(-c2ncnc3[nH]ccc23)cn1 [ruxolitinib, reference compound]
Hair depigmentation area scoring ([1]; Day 0 (before administration), 1.5% ruxolitinib ointment group): 3.90 | Hair depigmentation area scoring ([1]; Day 10, 1.5% ruxolitinib ointment, 30 mg topical twice a day): 3.80 ** | Hair depigmentation area scoring ([1]; Day 20, 1.5% ruxolitinib ointment, 30 mg topical twice a day): 3.70 ** | Hair depigmentation area scoring ([1]; Day 30, 1.5% ruxolitinib ointment, 30 mg topical twice a day): 3.40 ** | Hair depigmentation area scoring ([1]; Day 35, 1.5% ruxolitinib ointment, 30 mg topical twice a day): 2.90 ** | Hair depigmentation area scoring ([1]; Day 38, 1.5% ruxolitinib ointment, 30 mg topical twice a day): 2.60 ** | Hair depigmentation area scoring ([1]; Day 41, 1.5% ruxolitinib ointment, 30 mg topical twice a day): 2.40 ** | Hair depigmentation area scoring ([1]; Day 44, 1.5% ruxolitinib ointment, 30 mg topical twice a day): 2.30 ** | Hair depigmentation area scoring ([1]; Day 47, 1.5% ruxolitinib ointment, 30 mg topical twice a day): 2.20 ** | Hair depigmentation area scoring ([1]; Day 50, 1.5% ruxolitinib ointment, 30 mg topical twice a day): 2.20 ** | mean value of the reduction rate of the depigmentation area score ([1]; day 50, 1.5% ruxolitinib ointment, 30 mg (5 mg/cm^2) topical): 56.9% | number of the melanin-containing hair follicles, times that of the model control group [2]: about 6 times | Number of melanin-containing hair follicles [2, 5]: 41.7±16.7 and 41.7 | Proportion of melanin-containing hair follicles (%) [2, 5]: 29.8 ± 9.9% and 29.8%

CCS(=O)(=O)N1CC(CC#N)(n2cc(-c3ncnc4[nH]ccc34)cn2)C1 [Baricitinib, reference compound]
Hair growth rate (%) ([3]; listed as Positive control): 69.58 ± 3.23 % | Hair growth rate (%) ([3]; listed as positive drug): 69.58 ± 3.23% | Newly grown hair score ([3]; listed as Positive control): 4.2 ± 0.2 | Newly grown hair score ([3]; listed as positive drug): 4.2 ± 0.2 | Mean number of hair follicles ([4]; listed as Positive control): 40 ± 7.36 | Mean number of hair follicles ([4]; listed as positive drug): 40 ± 7.36

C=CC[C@@H]1/C=C(\C)C[C@H](C)C[C@H](OC)[C@H]2O[C@@](O)(C(=O)C(=O)N3CCCC[C@H]3C(=O)O[C@H](/C(C)=C/[C@@H]3CC[C@@H](O)[C@H](OC)C3)[C@H](C)[C@@H](O)CC1=O)[C@H](C)C[C@@H]2OC [tacrolimus, reference compound]
Hair depigmentation area scoring ([1]; Day 0 (before administration), 0.03% tacrolimus ointment group): 3.60 | Hair depigmentation area scoring ([1]; Day 10, 0.03% tacrolimus ointment, 30 mg topical twice a day): 3.50 | Hair depigmentation area scoring ([1]; Day 20, 0.03% tacrolimus ointment, 30 mg topical twice a day): 3.40 | Hair depigmentation area scoring ([1]; Day 30, 0.03% tacrolimus ointment, 30 mg topical twice a day): 3.40 | Hair depigmentation area scoring ([1]; Day 35, 0.03% tacrolimus ointment, 30 mg topical twice a day): 2.60 | Hair depigmentation area scoring ([1]; Day 38, 0.03% tacrolimus ointment, 30 mg topical twice a day): 2.50 | Hair depigmentation area scoring ([1]; Day 41, 0.03% tacrolimus ointment, 30 mg topical twice a day): 2.30 | Hair depigmentation area scoring ([1]; Day 44, 0.03% tacrolimus ointment, 30 mg topical twice a day): 2.20 | Hair depigmentation area scoring ([1]; Day 47, 0.03% tacrolimus ointment, 30 mg topical twice a day): 2.20 | Hair depigmentation area scoring ([1]; Day 50, 0.03% tacrolimus ointment, 30 mg topical twice a day): 2.20 | reduction rate of the depigmentation area score ([1]; day 50, 0.03% tacrolimus ointment, compared with the model control group): 56.9%
